{"source": "the supplement of paper PMC10307832", "assay_in_all_cases": "relative viability (nuclei count vs DMSO), 5 days (fraction); higher = more cells survive", "key": {"[1]": {"compound": "C(C(=O)C(=O)O)Br [Bromopyruvate] + Nc1nc2[nH]cc(CCc3ccc(C(=O)N[C@@H](CCC(=O)O)C(=O)O)cc3)c2c(=O)[nH]1 [Pemetrexed] (partner 0.2 µM)", "method_in_brief": "(§1)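 A single step with final 0.05% Triton X-100, 1% formaldehyde and 1 ug/ml Hoechst fixed the cells and stained nuclei 5 days after treatment. Lung cancer cell lines in 1536-well plates had been treated by pin tool the day after seeding with one drug alone or a fixed anchor-drug dose plus five library-drug doses (not always all listed) in √10 steps, and nuclei were counted on 4× images. Relative viability is the ratio of nuclei in treated wells to nuclei in vehicle wells, taken as the median of duplicate plates.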"}, "[2]": {"compound": "C(C(=O)C(=O)O)Br [Bromopyruvate] + CC(C)C[C@H](NC(=O)[C@H](Cc1ccccc1)NC(=O)c1cnccn1)B(O)O [Bortezomib] (partner 0.002 µM)", "method_in_brief": "as §1"}, "[3]": {"compound": "C(C(=O)C(=O)O)Br [Bromopyruvate] + CCNC(=O)c1noc(-c2cc(C(C)C)c(O)cc2O)c1-c1ccc(CN2CCOCC2)cc1 [Luminespib] (partner 0.01 µM)", "method_in_brief": "as §1"}, "[4]": {"compound": "CC(O)(CS(=O)(=O)c1ccc(F)cc1)C(=O)Nc1ccc(C#N)c(C(F)(F)F)c1 [Bicalutamide] + Cc1cc(Nc2cc(N3CCN(C)CC3)nc(Sc3ccc(NC(=O)C4CC4)cc3)n2)n[nH]1 [Tozasertib] (partner 0.1 µM)", "method_in_brief": "as §1"}}}
{"cell line": "UMC-11", "values": [{"measurement": "relative viability", "setting": "[1]; first compound 1 µM", "value": 0.801}, {"measurement": "relative viability", "setting": "[1]; first compound 3.162 µM", "value": 0.841}, {"measurement": "relative viability", "setting": "[1]; first compound 10 µM", "value": 0.777}, {"measurement": "relative viability", "setting": "[1]; first compound 31.62 µM", "value": 0.708}, {"measurement": "relative viability", "setting": "[1]; first compound 100 µM", "value": 0.736}, {"measurement": "relative viability", "setting": "[2]; first compound 1 µM", "value": 0.817}, {"measurement": "relative viability", "setting": "[2]; first compound 3.162 µM", "value": 0.79}, {"measurement": "relative viability", "setting": "[2]; first compound 10 µM", "value": 0.846}, {"measurement": "relative viability", "setting": "[2]; first compound 31.62 µM", "value": 0.645}, {"measurement": "relative viability", "setting": "[2]; first compound 100 µM", "value": 0.721}, {"measurement": "relative viability", "setting": "[3]; first compound 1 µM", "value": 0.959}, {"measurement": "relative viability", "setting": "[3]; first compound 3.162 µM", "value": 0.998}, {"measurement": "relative viability", "setting": "[3]; first compound 10 µM", "value": 0.987}, {"measurement": "relative viability", "setting": "[3]; first compound 31.62 µM", "value": 1.05}, {"measurement": "relative viability", "setting": "[3]; first compound 100 µM", "value": 1.06}, {"measurement": "relative viability", "setting": "[4]; first compound 0.08 µM", "value": 0.193}, {"measurement": "relative viability", "setting": "[4]; first compound 0.253 µM", "value": 0.184}, {"measurement": "relative viability", "setting": "[4]; first compound 0.8 µM", "value": 0.191}, {"measurement": "relative viability", "setting": "[4]; first compound 2.53 µM", "value": 0.191}]}
